From patent US6924314B2, “Compounds for the treatment of metabolic disorders” (Wellstat Therapeutics Corporation, priority 2001, dated 2005)

Legend:
db/db mice = assay: Antidiabetic effects in db/db mice, 2 weeks (Example J); format: in vivo, C57BL/Ksola mice; details: for Glucose / Glucose (% of Control): nonfasting; for Free Fatty Acids ± SEM / Triglycerides ± SEM: serum, daily oral
From the text: db/db mice have a defect in leptin signaling, leading to hyperphagia, obesity and diabetes. Moreover, unlike ob/ob mice on a C57BL/6J background, db/db mice on a C57BL/KS background undergo failure of their insulin-producing pancreatic islet cells, resulting in progression from hyperinsulinemia (associated with peripheral insulin resistance) to hypoinsulinemic diabetes.
A minimum of 7 days was allowed for adaptation after arrival.
Treatment cohorts were given daily oral doses of Vehicle (1% hydroxypropylmethylcellulose), Compounds BI, BS, BT, BU, BV or Fenofibrate for 2 weeks. At the end of the treatment period 100 μl of venous blood was withdrawn in a heparinized capillary tube from the retro-orbital sinus of db/db mice for serum chemistry analysis.

[1] = system: ob/ob obese diabetic mice; assay: Acute hypoglycemic effect in ob/ob obese diabetic mice: Experiment 1; format: in vivo
Protocol: Male ob/ob diabetic mice were randomized into groups of five animals each. Body weights were 50-55 g and blood glucose was approximately 300 mg/dL in the fed state. A single oral dose of a test substance suspended in 0.5% carboxymethylcellulose vehicle was administered by gavage. Blood glucose was measured in blood droplets obtained by nicking a tail vein with a razor using glucometer test strips and a Glucometer Elite XL device (Bayer) at 0, 0.5, 2, 4, 6 and 18 hours after the initial dosing. A 10% reduction in blood glucose versus oral vehicle is considered a positive screening result. Blood glucose reductions were generally maximal at 6 hours after drug administration.

[2] = single oral dose by gavage, 6 hours

Compound | % Reduction vs Control [1, 2] [%] | Blood Glucose after 6 hours [1, 2] [mg/dL] | also measured
Cc1cccc(C)c1COc1cccc(CCCC(=O)O)c1 [BS, 4-(3-(2,6-Dimethylbenzyloxy)phenyl)butyric acid] |  |  | Glucose (db/db mice; 93 mg/kg daily oral): 372.0 ± 53.8 mg/dL; Glucose (% of Control) (db/db mice; 93 mg/kg daily oral): 54 ± 8 % of Control; Free Fatty Acids ± SEM (db/db mice; dose per Table 12: 93 mg/kg): 2867.4 ± 267.7 µM; Triglycerides ± SEM (db/db mice; dose per Table 12: 93 mg/kg): 132.0 ± 15.2 mg/dL
COc1cc(C(=O)CCC(=O)O)ccc1OCc1c(C)cccc1C [BT, 4-[[4-(2,6-Dimethylbenzyloxy)-3-methoxy]phenyl]-4-oxobutyric acid] |  |  | Glucose (db/db mice; 107 mg/kg daily oral): 684.3 ± 63.6 mg/dL; Glucose (% of Control) (db/db mice; 107 mg/kg daily oral): 99 ± 9 % of Control; Free Fatty Acids ± SEM (db/db mice; dose per Table 12: 107 mg/kg): 3897.7 ± 291.3 µM; Triglycerides ± SEM (db/db mice; dose per Table 12: 107 mg/kg): 211.5 ± 21.5 mg/dL
COc1ccccc1COc1ccc(C(=O)CCC(=O)O)cc1 [Compound AB, 4-(4-(2-Methoxybenzyloxy)phenyl)-4-oxobutyric acid] | −39.1 ± 6.4 | 181 ± 19 | 
O=C(O)CCC(=O)c1ccc(OCc2ccccn2)cc1 [Compound AF, 4-(4-((2-Pyridinyl)-methoxy)phenyl)-4-oxobutyric acid] |  | 314 ± 32 | % Reduction vs Control ([1]; single oral dose, 6 hour reading normalized to initial blood glucose of this group, 416 ± 29 mg/dL): −24.6 ± 7.7 %
O=C(O)CCC(=O)c1ccc(OCc2ccccc2)cc1 [Compound AG, 4-(4-(Benzyloxy)phenyl)-4-oxobutyric acid] | −25.3 ± 7.7 | 222 ± 23 | 
O=C(O)CCC(=O)c1ccc(OCc2ccccc2Cl)cc1 [Compound AI, 4-(4-(2-Chlorobenzyloxy)phenyl)-4-oxobutyric acid] | −14.1 ± 3.0 | 255 ± 9 | 
O=C(O)CCC(=O)c1ccc(OCCc2ccccc2F)cc1 [Compound AJ, 4-(4-(2-(2-Fluorophenyl)ethoxy)phenyl)-4-oxobutyric acid] | −36.0 ± 4.7 | 190 ± 14 | 
